Source: ChEMBL document CHEMBL1201862, “PubChem BioAssay data set” (2004)
Active and inactive are the calls of the source.

Legend:
cells [1] = assay: cells
Major prion protein = Major prion protein (Homo sapiens, UniProt P04156); format: functional, cell-based
[2] = target: T1, Rac GTPase-activating protein 1 (Homo sapiens, UniProt Q9H0H5); assay: blockers of MgcRacGAP-driven Rac1 GTP hydrolysis – biochemical, ADP Hunter fluorescence, primary and confirmatory, confirmation (AID 624330); format: functional
T1 sequence (Q9H0H5 whole entry): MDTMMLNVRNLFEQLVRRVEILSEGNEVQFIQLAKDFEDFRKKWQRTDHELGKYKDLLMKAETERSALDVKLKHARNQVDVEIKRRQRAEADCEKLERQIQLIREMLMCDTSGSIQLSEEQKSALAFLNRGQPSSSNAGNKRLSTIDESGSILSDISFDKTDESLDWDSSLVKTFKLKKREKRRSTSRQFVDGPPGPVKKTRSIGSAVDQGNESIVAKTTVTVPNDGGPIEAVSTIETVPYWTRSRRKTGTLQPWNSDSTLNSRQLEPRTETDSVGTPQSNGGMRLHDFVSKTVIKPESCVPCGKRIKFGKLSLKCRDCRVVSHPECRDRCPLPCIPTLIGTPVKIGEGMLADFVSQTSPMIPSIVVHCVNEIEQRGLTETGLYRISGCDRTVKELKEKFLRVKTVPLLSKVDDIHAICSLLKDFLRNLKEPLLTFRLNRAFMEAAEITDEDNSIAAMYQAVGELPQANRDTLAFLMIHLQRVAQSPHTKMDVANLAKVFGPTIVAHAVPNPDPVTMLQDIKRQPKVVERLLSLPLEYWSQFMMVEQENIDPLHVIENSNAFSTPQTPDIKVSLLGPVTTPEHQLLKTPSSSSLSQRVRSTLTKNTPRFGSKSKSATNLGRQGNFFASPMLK

[3] = blockers of HIV-1 ZM109 envelope-driven cell-cell fusion – HeLa effector, CEM target cells, luciferase, cherry-pick, dose response (AID 652058); format: functional, cell-based;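 also: luciferase signal from HIV-1 Env mediated cell-cell fusion of effector and target cells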
[4] = HIV-1 AD8 envelope cell-cell fusion blockers – cherry-pick, dose response (AID 652062); format: functional, cell-based;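 also: luciferase signal from cell-cell fusion driven by HIV-1 clade B AD8 Env; potency is for inhibitors of fusion seen as a drop in luminescence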
[5] = viability loss in CEM21 cells – cell-based, CellTiter-Glo luminescence, cherry-picked, cytotoxicity control for viral fusion inhibitor project, dose response (AID 652042); format: functional;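 also: potency for signal decrease meaning cytotoxicity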
[6] = blockers of HIV-1 envelope-mediated cell-cell fusion – cherry-pick, dose response (AID 652057); format: functional, cell-based
[7] = off-target signal loss in HeLa-CEM21 co-culture – HeLa F-luc CTL cells, cherry-picked, counter-screen for HIV-1 Env fusion inhibitor project, dose response (AID 652040); format: functional, cell-based;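 also: potency for signal decrease marking cytotoxic or nonspecific inhibition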
[8] = target: 1-phosphatidylinositol 4,5-bisphosphate phosphodiesterase gamma-1 (Homo sapiens, UniProt P19174); assay: Counterscreen for inhibitors of phospholipase C isozymes (PLC-B3): Fluorescence-based biochemical high throughput dose response assay to identify inhibitors of phospholipase C isozymes (PLC-gamma1).
[9] = target: 1-phosphatidylinositol 4,5-bisphosphate phosphodiesterase beta-3 (Homo sapiens, UniProt Q01970); assay: Fluorescence-based biochemical high throughput dose response assay to identify inhibitors of phospholipase C isozymes (PLC-B3).
[10] = target: T2, Zinc finger protein mex-5 (Caenorhabditis elegans, UniProt Q9XUB2); assay: potency of MEX-5 RNA-binding blockers – biochemical, C. elegans, fluorescence polarization, dose response (AID 1960)
T2 sequence (Q9XUB2 whole entry): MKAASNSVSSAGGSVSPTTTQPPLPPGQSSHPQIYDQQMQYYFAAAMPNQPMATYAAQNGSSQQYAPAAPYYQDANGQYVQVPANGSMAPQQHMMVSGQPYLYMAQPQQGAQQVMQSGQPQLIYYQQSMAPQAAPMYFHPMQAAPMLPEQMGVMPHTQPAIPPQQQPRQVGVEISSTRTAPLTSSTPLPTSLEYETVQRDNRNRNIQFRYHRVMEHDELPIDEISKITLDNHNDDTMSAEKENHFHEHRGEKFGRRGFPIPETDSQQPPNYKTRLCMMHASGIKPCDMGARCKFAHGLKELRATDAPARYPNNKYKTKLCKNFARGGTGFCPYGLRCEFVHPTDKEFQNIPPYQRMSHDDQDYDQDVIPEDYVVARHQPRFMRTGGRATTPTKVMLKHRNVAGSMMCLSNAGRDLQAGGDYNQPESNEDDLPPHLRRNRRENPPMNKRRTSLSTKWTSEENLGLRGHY

[11] = Counterscreen for activators of the function of SWI/SNF related, matrix associated, actin dependent regulator of chromatin, subfamily a, member 2 (SMARCA2, BRM): Luminescence-based cell-based high throughput dose response assay to identify non-selective compounds using the VP16 reporter assay.; format: functional
[12] = target: SWI/SNF-related matrix-associated actin-dependent regulator of chromatin subfamily A member 2 (Homo sapiens, UniProt P51531); assay: Luminescence-based cell-based high throughput dose response assay to identify activators of the function of SWI/SNF related, matrix associated, actin dependent regulator of chromatin, subfamily a, member 2 (SMARCA2, BRM).; format: functional
[13] = target: T3, RNA-binding protein pos-1 (Caenorhabditis elegans, UniProt G5EF15); assay: disruptors of C. elegans POS-1 RNA interaction – biochemical, fluorescence polarization, dose response (AID 1964);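 also: purified POS-1 fused to maltose binding protein made in E. coli; potency of compounds blocking POS-1 binding to fluorescent RNA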
T3 sequence (G5EF15 whole entry): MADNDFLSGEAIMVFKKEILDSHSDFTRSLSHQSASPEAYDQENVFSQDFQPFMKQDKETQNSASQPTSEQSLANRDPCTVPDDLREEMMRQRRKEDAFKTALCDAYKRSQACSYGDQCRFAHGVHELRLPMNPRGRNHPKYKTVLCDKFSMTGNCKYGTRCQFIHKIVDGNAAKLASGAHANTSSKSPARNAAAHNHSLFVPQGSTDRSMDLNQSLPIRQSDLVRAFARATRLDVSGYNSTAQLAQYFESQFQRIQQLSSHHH

HeLa = assay: viability loss in HeLa cells – cell-based, ATP luminescence, cherry-pick samples, cytotoxicity control, dose response (AID 687004); format: functional; settings: Homo sapiens
[14] = target: Arf-GAP with SH3 domain, ANK repeat and PH domain-containing protein 1 (Homo sapiens, UniProt Q9ULH1); format: functional;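 also: biochemical fluorescence polarization dose–response screen measuring inhibition of ASAP1; ASAP1 GAP domain stimulating GTP hydrolysis by truncated human ARF1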
[15] = luciferase reporter signal suppression in cells – H4 neuroglioma cells, luminescence, dose response (AID 1990); format: functional, cell-based
[16] = Luminescence Cell-Based Dose Response HTS to Identify Inhibitors of 5'UTR Stem-Loop Driven Prion Protein mRNA Translation in H4 Neuroglioblastoma Cells. [Related pubchem assays: 1827 (Project Summary), 1813 (Primary HTS)]; format: functional
[17] = alpha-synuclein stem-loop luciferase translation blockers – H4 neuroglioma cells, luminescence, confirmation (AID 1988); format: functional, cell-based
Vero = assay: viability loss in Vero cells – cell-based, plate reader, cherry-pick samples, cytotoxicity control, dose response (AID 687020); format: functional; settings: Chlorocebus sabaeus
H9c2 = assay: cells; format: functional, cell-based; settings: Rattus norvegicus, H9c2, Myocardium;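 also: confirmatory concentration-response retest of ultra-high-throughput screening hits for modulation of myocardial damage; cell death induced by hydrogen peroxide oxidative stress; compound pretreatment for 60 min then peroxide exposure for 2 h; potency is for protecting the cells against peroxide damage rather than for killing them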
[18] = general cell-killing toxicity readout – plate reader, dry powder samples, cytotoxicity control for PAX8 inhibitor project, dose response (AID 743021); format: functional, cell-based
Paired box protein Pax-8 = Paired box protein Pax-8 (Homo sapiens, UniProt Q06710); assay: PAX8 transcriptional activity inhibition in RMG-I – RMG-I cells, luciferase, cherry-pick, dose response (AID 687027); format: functional, cell-based;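 also: luciferase reporter driven by Pax8 target thyroperoxidase promoter measured by SteadyGlo luminescence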
[19] = P. falciparum Dd2 growth inhibitors, dose response, SYBR Green, cherry-picked samples (AID 1159567); format: functional, cell-based
[20] = toxicity to human hepatoma HepG2 cells – cell-based, cherry-picked samples, cytotoxicity control, dose response (AID 1159577); format: functional
[21] = IGROV1 cell killing – plate reader, dry powder samples, PAX8 inhibitor project, dose response (AID 743043); format: functional, cell-based; settings: IGROV-1
[22] = OVCAR-3 cell viability loss – plate reader, dry powder samples, PAX8 inhibitor project, dose response (AID 743044); format: functional, cell-based
[23] = Dd2 malaria parasite growth inhibition potency – SYBR Green, dry powder samples, dose response (AID 1159566); format: functional, cell-based;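 also: potency for growth inhibition with lower SYBR green DNA signal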
[24] = general mammalian cell viability loss – activator set, cherry-pick, cytotoxicity control for miR-122 modulator project, dose response (AID 720690); format: functional, cell-based;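 also: HEK293T human cells scored for general mammalian cytotoxicity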
[25] = toxicity to human HepG2 hepatoma cells – cell-based, plate reader, dry powder samples, cytotoxicity control, dose response (AID 1159569); format: functional;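 also: inhibitor potency with signal falling toward the positive control level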
[26] = growth inhibition of yeast DHODH-expressing 3D7 parasites – SYBR Green, dry powder samples, dose response (AID 1159570); format: functional, cell-based;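 also: parasite growth measured after 72 hours of compound exposure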
[27] = growth inhibition of PfATP4-mutant resistant parasites – NITD609-resistant line, SYBR Green, dry powder, dose response (AID 1159571); format: functional, cell-based;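 also: parasites synchronized at ring stage by sorbitol before testing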
[28] = target: NAD-dependent protein deacylase sirtuin-5, mitochondrial (Homo sapiens, UniProt Q9NXA8); assay: blockers of sirtuin-5 peptide desuccinylation – biochemical, fluorescence imaging, cherry-pick, set 6, dose response (AID 720597)
[29] = viability loss in HEK293 kidney cells – cell-based, cherry-picks, set 5, cytotoxicity control, dose response (AID 1053117); format: functional
cells [30] = format: functional, cell-based
[31] = target: T4, Nuclear receptor subfamily 0 group B member 1 (Homo sapiens, UniProt P51843); format: functional, cell-based;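 also: HEK293T cells transfected with SF-1 and DAX-1 plus StAR promoter luciferase reporter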
T4 sequence (P51843 whole entry): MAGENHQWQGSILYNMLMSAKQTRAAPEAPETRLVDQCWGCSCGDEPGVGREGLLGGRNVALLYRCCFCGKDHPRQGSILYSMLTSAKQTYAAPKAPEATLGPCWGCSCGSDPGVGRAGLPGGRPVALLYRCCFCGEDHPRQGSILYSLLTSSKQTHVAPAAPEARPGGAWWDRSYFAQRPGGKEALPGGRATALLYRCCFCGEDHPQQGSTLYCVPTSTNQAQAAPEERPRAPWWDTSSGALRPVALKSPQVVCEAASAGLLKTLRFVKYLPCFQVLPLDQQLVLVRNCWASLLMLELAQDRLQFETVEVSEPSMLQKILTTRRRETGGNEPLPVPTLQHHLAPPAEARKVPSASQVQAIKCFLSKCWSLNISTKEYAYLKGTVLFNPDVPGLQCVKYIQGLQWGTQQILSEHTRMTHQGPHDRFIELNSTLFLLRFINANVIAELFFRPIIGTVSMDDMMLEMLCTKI

CC(C)c1nc(SCC(=O)Nc2ccc(N(C)C)cc2)c2ccccc2n1
IC50 (cells [1]): 58.2 µM (inactive)
IC50 (Major prion protein): 2.94 µM (active)
IC50 [2]: 196 µM (active)

COC(=O)N1[C@H](C)C=C[C@]1(Cc1ccccc1)C(=O)NCCCNc1ncc(C(F)(F)F)cc1Cl
AC50 [3]: 6.11 µM (active)
AC50 [4]: 11.9 µM (active)
AC50 [5]: 48.6 µM (active)
AC50 [6]: 3.42 µM (active)
AC50 [7]: 6.96 µM (active)

CC(C)(C)C1CCC(C(=O)Nc2ccccc2)CC1 (stereo not given)
IC50 [8]: > 122 µM (inactive)
IC50 [9]: > 122 µM (inactive)

CCCCNC(=O)c1cc2c(=O)n3cccc(C)c3nc2n(Cc2ccncc2)c1=N
EC50 [10]: 39.6 µM (inconclusive)
EC50 [11]: > 91.1 µM (inactive)
EC50 [12]: > 91.1 µM (inactive)
EC50 [13]: 24.3 µM (inconclusive)

N=C(N)NS(=O)(=O)c1ccc(NC(=S)NC(=O)c2ccc3c(c2)OCO3)cc1
IC50 (cells [1]): > 138 µM (inactive)
IC50 (Major prion protein): 15.1 µM (inactive)

Cc1ccc2nc(C)c3c(c2c1)OC(C(C)(Cl)Br)C3 (stereo not given)
AC50 (HeLa): > 52 µM (inactive)

NS(=O)(=O)c1ccc(CCNc2nc3c(-c4cccc(F)c4)nnn3c3ccccc23)cc1
IC50 [14]: 11.2 µM (inactive)
EC50 [15]: > 120 µM (not active)
EC50 [16]: > 120 µM (not active)
EC50 [17]: > 120 µM (not active)

COc1cccc(NC(=O)COc2cccc3c2CCNC3=O)c1
AC50 (Vero): 37.2 µM (active)
IC50 (H9c2): > 79 µM (inactive)

CC1(C)CC(=O)C=C(C#CC2(O)CCCCC2)C1
AC50 [18]: 64.8 µM (active)
AC50 (Paired box protein Pax-8): 4.34 µM (active)

Cc1ccc(C)c(NC(=O)CN2C(=O)C3CC=CCC3C2=O)c1 (stereo not given)
AC50 (Vero): 35.8 µM (active)

C[C@@H]1CN([C@@H](C)CO)C(=O)Cc2cc(NC(=O)Nc3ccc4c(c3)OCO4)ccc2O[C@H]1CN(C)Cc1ccc(Cl)c(Cl)c1
AC50 [19]: 5.32 µM (active)
AC50 [3]: 21.8 µM (active)
AC50 [4]: 25 µM (active)
AC50 [20]: > 39 µM (inactive)
AC50 [6]: 23.5 µM (active)

O=C(Nc1cccc(F)c1)N1CCCCN2[C@H](CO)[C@@H](c3ccc(-c4ccccc4F)cc3)[C@H]2C1
AC50 [18]: 57.4 µM (active)
AC50 [21]: 50.9 µM (active)
AC50 (Paired box protein Pax-8): 10.2 µM (active)
AC50 [22]: 21.9 µM (active)

C[C@@H]1CN([C@@H](C)CO)C(=O)c2cccc(NS(C)(=O)=O)c2O[C@@H]1CN(C)C(=O)Nc1ccc2c(c1)OCO2
AC50 (HeLa): 21.1 µM (active)

C[C@H]1CN([C@@H](C)CO)S(=O)(=O)c2ccc(C#Cc3ccccc3F)cc2O[C@@H]1CN(C)C(=O)c1ccc2c(c1)OCO2
AC50 [19]: 1.66 µM (active)
AC50 [23]: 1.55 µM (active)
AC50 [24]: 19.5 µM (active)
AC50 [25]: 33.7 µM (active)
AC50 [26]: 2.06 µM (active)
AC50 [27]: 1.71 µM (active)

CN(C)C(=O)c1cccc(-c2ccccc2[C@H]2[C@@H](C#N)N(C(=O)C3CC3)[C@@H]2CO)c1
AC50 [28]: > 32 µM (inactive)

CCCC#Cc1ccc2c(c1)O[C@@H](CN(C)C(=O)Nc1ccccc1F)[C@H](C)CN([C@H](C)CO)S2(=O)=O
AC50 [28]: > 30 µM (inactive)

C[C@H](CO)N1C[C@H](C)[C@H](CN(C)C(=O)c2cccc(F)c2)Oc2ncc(-c3ccccc3)cc2C1=O
AC50 [29]: > 52 µM (inactive)

COc1ccc(OC)c(-c2nnc3n2N=C(c2ccc(OC)c(OC4CCOC4)c2)CS3)c1 (stereo not given)
IC50 (cells [30]): > 67.5 µM (inactive)
IC50 [31]: > 67.5 µM (inactive)
AC50 (Paired box protein Pax-8): 2.71 µM (active)

O=Cc1ccc2noc(-c3ccc(Cl)cc3)c2c1
EC50 [11]: > 91.2 µM (inactive)
EC50 [12]: > 91.1 µM (inactive)
